Assay results reported in patent US11679110B2, “Methods of treating disorders using CSF1R inhibitors” (Deciphera Pharmaceuticals, LLC, priority 2018, dated 2023).
Read-outs that look alike come from different tables or passages of the source.

Tests used:
[1] = Plasma pharmacokinetics of Compound 1 in patients with advanced solid tumor malignancies and TGCT; type: in vivo, human; conditions: for Cmax / AUC(0-t) / Tmax: human, plasma, oral; for Tmax: Median (Min, Max)
Description: PK analysis was conducted on all 38 patients. Serial blood samples were collected for PK and took place on either Day −7, Cycle 1, Day 1 (C1D1) and C2D1 at pre-dose, 0.5, 1, 2, 4, 6, 8, 10-12, and 24 hr time points or Day −7, C1D1, C1D8, and C2D1 at pre-dose, 1, 2, 4, 6, and 8 hr time points, or C1D1, C1D8, and C2D1 at pre-dose, 1, 2, 4, 6, and 8 hr time points. High fat meal was given prior to dosing of Compound 1 on Day −7. PD effects were measured by two methodologies: 1) depletion of CSF1R-expressing monocytes in peripheral blood (Cohorts 1-7) from C1D1, C1D15 and C2D1; and 2) increase of plasma levels of CSF1 and IL-34, the ligands for CSF1R (Cohorts 1-7) on C1D1, C1D15, and C2D1. For the CD16^+ monocyte assay, whole blood collected in an EDTA vacutainer was aliquoted into tubes and incubated with fluorescently-labeled antibodies (CD14-Alexa488 (BD Pharmingen); CD16-PE-Cy7 (BD Pharmingen); and TIE2-APC (R&D Systems). After incubation, red blood cells were lysed, and the remaining cells were washed several times before being analyzed on a flow cytometer. For the plasma CSF1 assay or IL-34, whole blood collected in an EDTA vacutainer was centrifuged, and the plasma was collected and frozen. Plasma levels of CSF1 or IL-34 were measured using a commercial ELISA kit (R&D Systems).
Cohort 1 had daily dosing.

intratumoral macrophages = conditions: MC38 mice; oral QD; 21 days

Cc1nc(-c2cnc(NC(C)C)n(C)c2=O)ccc1Oc1ccnc(-c2cnn(C)c2)c1 [Compound 1, 2-(isopropylamino)-3-methyl-5-(6-methyl-5-((2-(1-methyl-1H-pyrazol-4-yl)pyridin-4-yl)oxy)pyridin-2-yl)pyrimidin-4(3H)-one]
Cmax ([1]; 20 mg, Cohort 3 20 mg Weekly after 5-day QD loading dose, Day-7, GM (CV %)): 242 ng/mL
AUC(0-t) ([1]; 20 mg, Cohort 3 20 mg Weekly after 5-day QD loading dose, Day-7, GM (CV %), read-out: AUC0-8): 1320 ng·h/mL
Tmax ([1]; 20 mg, Cohort 3 20 mg Weekly after 5-day QD loading dose, Day-7): 4 h
Cmax ([1]; 20 mg, Cohort 4 20 mg QD x 5 d, BIW maintenance dose, C1D1, Geo Mean): 268 ng/mL
AUC(0-t) ([1]; 20 mg, Cohort 4 20 mg QD x 5 d, BIW maintenance dose, C1D1, Geo Mean, read-out: AUC0-8 h): 1610 ng·h/mL
Cmax ([1]; 20 mg, Cohort 4 20 mg QD x 5 d, BIW maintenance dose, C1D8, Geo Mean): 685 ng/mL
AUC(0-t) ([1]; 20 mg, Cohort 4 20 mg QD x 5 d, BIW maintenance dose, C1D8, Geo Mean, read-out: AUC0-8 h): 4660 ng·h/mL
Cmax ([1]; 20 mg, Cohort 4 20 mg QD x 5 d, BIW maintenance dose, C2D1, Geo Mean): 642 ng/mL
AUC(0-t) ([1]; 20 mg, Cohort 4 20 mg QD x 5 d, BIW maintenance dose, C2D1, Geo Mean, read-out: AUC0-8 h): 4300 ng·h/mL
Cmax ([1]; 20 mg, Cohort 4 20 mg QD x 5 d, BIW maintenance dose, Day -7, Geo Mean): 183 ng/mL
AUC(0-t) ([1]; 20 mg, Cohort 4 20 mg QD x 5 d, BIW maintenance dose, Day -7, Geo Mean, read-out: AUC0-8 h): 1090 ng·h/mL
Cmax ([1]; 20 mg, Cohort 4 20 mg Twice Weekly after 5-day QD loading dose, C1D1, GM (CV %)): 268 ng/mL
AUC(0-t) ([1]; 20 mg, Cohort 4 20 mg Twice Weekly after 5-day QD loading dose, C1D1, GM (CV %), read-out: AUC0-8): 1610 ng·h/mL
Tmax ([1]; 20 mg, Cohort 4 20 mg Twice Weekly after 5-day QD loading dose, C1D1): 0.75 h
Cmax ([1]; 20 mg, Cohort 4 20 mg Twice Weekly after 5-day QD loading dose, C1D8, GM (CV %)): 685 ng/mL
AUC(0-t) ([1]; 20 mg, Cohort 4 20 mg Twice Weekly after 5-day QD loading dose, C1D8, GM (CV %), read-out: AUC0-8): 4660 ng·h/mL
Tmax ([1]; 20 mg, Cohort 4 20 mg Twice Weekly after 5-day QD loading dose, C1D8): 2.25 h
Cmax ([1]; 20 mg, Cohort 4 20 mg Twice Weekly after 5-day QD loading dose, C2D1, GM (CV %)): 642 ng/mL
AUC(0-t) ([1]; 20 mg, Cohort 4 20 mg Twice Weekly after 5-day QD loading dose, C2D1, GM (CV %), read-out: AUC0-8): 4300 ng·h/mL
Tmax ([1]; 20 mg, Cohort 4 20 mg Twice Weekly after 5-day QD loading dose, C2D1): 0.5 h
Cmax ([1]; 20 mg, Cohort 4 20 mg Twice Weekly after 5-day QD loading dose, Day-7, GM (CV %)): 183 ng/mL
AUC(0-t) ([1]; 20 mg, Cohort 4 20 mg Twice Weekly after 5-day QD loading dose, Day-7, GM (CV %), read-out: AUC0-8): 1090 ng·h/mL
Tmax ([1]; 20 mg, Cohort 4 20 mg Twice Weekly after 5-day QD loading dose, Day-7): 4 h
AUC(0-t) ([1]; 20 mg, Cohort 7 20 mg QD after 3-day 50 mg QD loading dose, C2D1, GM (CV %), read-out: AUC0-8): 7980 ng·h/mL
Cmax ([1]; 30 mg, Cohort 5 30 mg QD x 5 d, BIW maintenance dose, C1D1, Geo Mean): 600 ng/mL
AUC(0-t) ([1]; 30 mg, Cohort 5 30 mg QD x 5 d, BIW maintenance dose, C1D1, Geo Mean, read-out: AUC0-8 h): 3390 ng·h/mL
Cmax ([1]; 30 mg, Cohort 5 30 mg QD x 5 d, BIW maintenance dose, C1D8, Geo Mean): 1400 ng/mL
AUC(0-t) ([1]; 30 mg, Cohort 5 30 mg QD x 5 d, BIW maintenance dose, C1D8, Geo Mean, read-out: AUC0-8 h): 8800 ng·h/mL
Cmax ([1]; 30 mg, Cohort 5 30 mg QD x 5 d, BIW maintenance dose, C2D1, Geo Mean): 953 ng/mL
AUC(0-t) ([1]; 30 mg, Cohort 5 30 mg QD x 5 d, BIW maintenance dose, C2D1, Geo Mean, read-out: AUC0-8 h): 5420 ng·h/mL
Cmax ([1]; 30 mg, Cohort 5 30 mg QD x 5 d, BIW maintenance dose, Day -7, Geo Mean): 278 ng/mL
AUC(0-t) ([1]; 30 mg, Cohort 5 30 mg QD x 5 d, BIW maintenance dose, Day -7, Geo Mean, read-out: AUC0-8 h): 1390 ng·h/mL
Cmax ([1]; 30 mg, Cohort 5 30 mg Twice Weekly after 5-day QD loading dose, C1D1, GM (CV %)): 422 ng/mL
AUC(0-t) ([1]; 30 mg, Cohort 5 30 mg Twice Weekly after 5-day QD loading dose, C1D1, GM (CV %), read-out: AUC0-8): 2250 ng·h/mL
Tmax ([1]; 30 mg, Cohort 5 30 mg Twice Weekly after 5-day QD loading dose, C1D1): 1 h
Cmax ([1]; 30 mg, Cohort 5 30 mg Twice Weekly after 5-day QD loading dose, C1D8, GM (CV %)): 1160 ng/mL
AUC(0-t) ([1]; 30 mg, Cohort 5 30 mg Twice Weekly after 5-day QD loading dose, C1D8, GM (CV %), read-out: AUC0-8): 7160 ng·h/mL
Tmax ([1]; 30 mg, Cohort 5 30 mg Twice Weekly after 5-day QD loading dose, C1D8): 1 h
Cmax ([1]; 30 mg, Cohort 5 30 mg Twice Weekly after 5-day QD loading dose, C2D1, GM (CV %)): 822 ng/mL
AUC(0-t) ([1]; 30 mg, Cohort 5 30 mg Twice Weekly after 5-day QD loading dose, C2D1, GM (CV %), read-out: AUC0-8): 5420 ng·h/mL
Tmax ([1]; 30 mg, Cohort 5 30 mg Twice Weekly after 5-day QD loading dose, C2D1): 1.5 h
Cmax ([1]; 30 mg, Cohort 5 30 mg Twice Weekly after 5-day QD loading dose, Day-7, GM (CV %)): 278 ng/mL
AUC(0-t) ([1]; 30 mg, Cohort 5 30 mg Twice Weekly after 5-day QD loading dose, Day-7, GM (CV %), read-out: AUC0-8): 1390 ng·h/mL
Cmax ([1]; 30 mg, Cohort 6 30 mg QD x 5 d, BIW maintenance dose (so in the source), C2D1, Geo Mean): 1150 ng/mL
AUC(0-t) ([1]; 30 mg, Cohort 6 30 mg QD x 5 d, BIW maintenance dose (so in the source), C2D1, Geo Mean, read-out: AUC0-8 h): 7290 ng·h/mL
Cmax ([1]; 40 mg, Cohort 6 40 mg Twice Weekly after 5-day QD loading dose, C1D1, GM (CV %)): 830 ng/mL
AUC(0-t) ([1]; 40 mg, Cohort 6 40 mg Twice Weekly after 5-day QD loading dose, C1D1, GM (CV %), read-out: AUC0-8): 4790 ng·h/mL
Cmax ([1]; 40 mg, Cohort 6 40 mg Twice Weekly after 5-day QD loading dose, C1D8, GM (CV %)): 1860 ng/mL
AUC(0-t) ([1]; 40 mg, Cohort 6 40 mg Twice Weekly after 5-day QD loading dose, C1D8, GM (CV %), read-out: AUC0-8): 12000 ng·h/mL
Tmax ([1]; 40 mg, Cohort 6 40 mg Twice Weekly after 5-day QD loading dose, C1D8): 1 h
Cmax ([1]; 40 mg, Cohort 6 40 mg Twice Weekly after 5-day QD loading dose, C2D1, GM (CV %)): 1150 ng/mL
AUC(0-t) ([1]; 40 mg, Cohort 6 40 mg Twice Weekly after 5-day QD loading dose, C2D1, GM (CV %), read-out: AUC0-8): 7290 ng·h/mL
Tmax ([1]; 40 mg, Cohort 6 40 mg Twice Weekly after 5-day QD loading dose, C2D1): 1 h
Cmax ([1]; 40 mg, Cohort 6 40 mg Twice Weekly after 5-day QD loading dose, Day-7, GM (CV %)): 454 ng/mL
AUC(0-t) ([1]; 40 mg, Cohort 6 40 mg Twice Weekly after 5-day QD loading dose, Day-7, GM (CV %), read-out: AUC0-8): 2250 ng·h/mL
Tmax ([1]; 40 mg, Cohort 6 40 mg Twice Weekly after 5-day QD loading dose, Day-7): 4 h
Cmax ([1]; 50 mg, Cohort 7 50 mg QD x 3 d, QD maintenance dose, C2D1, Geo Mean): 1250 ng/mL
AUC(0-t) ([1]; 50 mg, Cohort 7 50 mg QD x 3 d, QD maintenance dose, C2D1, Geo Mean, read-out: AUC0-8 h): 7980 ng·h/mL
Cmax ([1]; Cohort 7 20 mg QD after 3-day 50 mg QD loading dose, C1D1, GM (CV %)): 440 ng/mL
AUC(0-t) ([1]; Cohort 7 20 mg QD after 3-day 50 mg QD loading dose, C1D1, GM (CV %), read-out: AUC0-8): 2310 ng·h/mL
Cmax ([1]; Cohort 7 20 mg QD after 3-day 50 mg QD loading dose, C1D8, GM (CV %)): 1010 ng/mL
AUC(0-t) ([1]; Cohort 7 20 mg QD after 3-day 50 mg QD loading dose, C1D8, GM (CV %), read-out: AUC0-8): 6740 ng·h/mL
Cmax ([1]; Cohort 7 20 mg QD after 3-day 50 mg QD loading dose, C2D1, GM (CV %)): 840 ng/mL
Cmax ([1]; Cohort 7 20 mg QD after 3-day 50 mg QD loading dose, Day-7, GM (CV %)): 272 ng/mL
AUC(0-t) ([1]; Cohort 7 20 mg QD after 3-day 50 mg QD loading dose, Day-7, GM (CV %), read-out: AUC0-8): 800 ng·h/mL
Tmax ([1]; Cohort 7 20 mg QD after 3-day 50 mg QD loading dose, Day-7): 5 h
half-life ([1]; patients, dose cohorts 1 to 7, no accurate estimation): long half-life
reduction in intratumoral macrophages compared to vehicle or isotype controls (as a percent of all cells in the tumor) (intratumoral macrophages): > 80%
